Measurements published in patent US5480887A, “Protease inhibitors” (Eli Lilly and Company, priority 1994, dated 1996).
Read-outs that look alike come from different tables or passages of the source.

Legend:
HIV-1 Protease = molecular target: T1, HIV-1 Protease (Human immunodeficiency virus type 1 group M subtype B, UniProt P04585); experiment: biochemical; conditions: for IC50: read-out: Fluorescence Assay IC50 (converted); for inhibition at 0.00016 µg/mL: read-out: % inhibition at the stated concentration (ICx (0.16))
T1 construct: HIV-1 Protease
Description: These compounds may be assayed using two assays: (1) an enzyme inhibition assay, and (2) an antiviral cell culture assay.
This assay is described in detail in published European Patent Application (EPA) 0 526 009, herein incorporated by reference. Using this assay, a number of the compounds, prepared above, were assayed for HIV protease inhibitory activity.
The assay is unable to test compounds at less than a concentration of 0.16 ng/mL.

HIV = experiment: microbe, parasite or virus in culture; type: cell-based; conditions: XTT, 450 nm, * (n) = average of n assays, read-out: Antiviral Activity IC90
Description: In addition, the compounds described in the present application may be tested using an antiviral cell culture assay as described in Weislow, O.S., J. of National Cancer Institute, 81(8), pages 577-586 (Apr. 19, 1989) herein incorporated by reference.
This assay compares the viability of HIV-infected cells in a cell culture medium relative to the viability of such cells in the presence of a test compound. The concentration of test compound necessary to inhibit 90% of the virus is then measured using the viability of the cells as an indicator of viral inhibition. This assay is carried out using cell lines that are sensitive to the lyric effects of HIV infection.
Specifically, this assay utilizes the metabolic reduction of a tetrazolium reagent, 2,3-bis[2-methoxy-4-nitro-5-sulfophenyl]-5-[(phenylamino)carbonyl]-2H-tetrazolium hydroxide (XTT). In the presence of a viable cell, the tetrazolium reagent, XTT, is reduced to provide XTT formazan which may be quantified using colorimetric determination (at 450 nm). The intensity of the chromogenic signal is directly proportional to the concentration of the XTT formazan, thus providing a measure of the quantity of viable cells.

[1] = concentration inhibiting 50% of the enzyme, * = calculated average with n number of assays
[2] = Human immunodeficiency virus 1, concentration inhibiting 90% of the viral-induced toxicity
[3] = at 0.16 ng/mL, lowest testable concentration

CC(C)(C)NC(=O)[C@@H]1C[C@@H]2SCC[C@@H]2CN1C[C@@H](O)[C@H](CSc1ccccc1)NC(=O)C[C@@H]1CCS(=O)(=O)C1 [Example 12, N-t-Butyl-octahydro-5[2R-hydroxy-3R-N(1',1'-dioxo-tetrahydrothiophen-3'R-ylmethylcarbonyl)amino-4-phenylthio-butyl]-(3aR,7aS)-thieno[3,2-c] pyridine-(6S)-carboxamide]
Fluorescence Assay IC50 (HIV-1 Protease; [1]): 0.44 ng/mL
IC90 (HIV; concentration inhibiting 90% of the viral-induced toxicity): 96 nM

CC(=O)N[C@H](CCS(C)(=O)=O)C(=O)N[C@@H](CSc1ccccc1)[C@H](O)CN1C[C@H]2CCS[C@H]2C[C@H]1C(=O)NC(C)(C)C [Example 15B, N-t-Butyl-octahydro-5[2R-hydroxy-3R-phenylthiomethyl-4-aza-5-oxo-6R-N(acetyl)amino-8-methylsulfonyl-octyl]-(3aR,7aS)-thieno[3,2-c]pyridine-(6S)-carboxamide]
IC50 (HIV-1 Protease; [1]): 13.5 nM
IC90 (HIV; [2]): 7630 nM

CC(C)(C)NC(=O)[C@@H]1C[C@@H]2SCC[C@@H]2CN1C[C@@H](O)[C@H](Cc1ccccc1)NC(=O)[C@@H](CS(=O)(=O)c1ccc2ccccc2c1)NS(C)(=O)=O [Example 17B, N-t-Butyl-octahydro-5[2R-hydroxy-3S-phenylmethyl-4-aza-5-oxo-6S-N(methylsulfonyl)amino-7-naphth-2-ylsulfonyl-heptyl]-(3aR,7aS)-thieno[3,2-c]pyridine-(6S)-carboxamide]
inhibition at 0.00016 µg/mL (HIV-1 Protease; [3]): 60%
IC90 (HIV; [2]): 78 nM

CC(C)(C)NC(=O)[C@@H]1C[C@@H]2SCC[C@@H]2CN1C[C@@H](O)[C@H](Cc1ccccc1)NC(=O)[C@@H](CS(=O)(=O)c1ccc2ccccc2c1)NC(=O)C(F)(F)F [Example 17C, N-t-Butyl-octahydro-5[2R-hydroxy-3S-phenylmethyl-4-aza-5-oxo-6S-N(trifluoromethylcarbonyl)amino-7-naphth-2-ylsulfonyl-heptyl]-(3aR,7aS)-thieno[3,2-c]pyridine-(6S)-carboxamide]
inhibition at 0.00016 µg/mL (HIV-1 Protease; [3]): 76%
IC90 (HIV; [2]): 31 nM

CC(C)(C)NC(=O)[C@@H]1C[C@@H]2SCC[C@@H]2CN1C[C@@H](O)[C@H](Cc1ccccc1)NC(=O)[C@@H](CS(=O)(=O)c1ccc(F)cc1)NS(C)(=O)=O [Example 19B, N-t-Butyl-octahydro-5[2R-hydroxy-3S-phenylmethyl-4-aza-5-oxo-6S-N(methylsulfonyl)amino-7-p-fluorophenylsulfonyl-heptyl]-(3aR,7aS)-thieno[3,2-c]pyridine-(6S)-carboxamide]
IC50 (HIV-1 Protease; [1]): 0.224 nM
IC90 (HIV; [2]): 233 nM

CC(C)(C)NC(=O)[C@@H]1C[C@@H]2SCC[C@@H]2CN1C[C@@H](O)[C@H](Cc1ccccc1)NC(=O)[C@@H](CS(=O)(=O)c1ccc(F)cc1)NC(=O)C(F)(F)F [Example 19C, N-t-Butyl-octahydro-5[2R-hydroxy-3S-phenylmethyl-4-aza-5-oxo-6S-N(trifluoromethylcarbonyl)amino-7-p-fluorophenylsulfonyl-heptyl]-(3aR,7aS)-thieno[3,2-c]pyridine-(6S)-carboxamide]
inhibition at 0.00016 µg/mL (HIV-1 Protease): 85%
IC50 (HIV-1 Protease): 1.16 nM
IC90 (HIV; [2]): 52 nM

CC(=O)N[C@H](CS(=O)(=O)c1ccc(F)cc1)C(=O)N[C@@H](CSc1ccccc1)[C@H](O)CN1C[C@H]2CCS[C@H]2C[C@H]1C(=O)NC(C)(C)C [Example 21B, N-t-Butyl-octahydro-5[2R-hydroxy-3R-phenylthiomethyl-4-aza-5oxo-6S-N(acetyl)amino-7-p-fluorophenylsulfonyl-heptyl]-(3aR,7aS)-thieno[3,2-c]pyridine-(6S)-carboxamide]
IC50 (HIV-1 Protease; [1]): 1.83 nM
IC90 (HIV; [2]): 78 nM

CC(=O)N[C@H](CS(=O)(=O)c1cccc2cccnc12)C(=O)N[C@@H](Cc1ccccc1)[C@H](O)CN1C[C@H]2CCS[C@H]2C[C@H]1C(=O)NC(C)(C)C [Example 25, N-t-Butyl-octahydro-5[2R-hydroxy-3S-phenylmethyl-4-aza-5-oxo-6S-N(acetyl)amino-7-quinolin-8-ylsulfonyl-heptyl]-(3aR,7aS)-thieno[3,2-c]pyridine-(6S)-carboxamide]
IC50 (HIV-1 Protease): 0.239 nM
IC90 (HIV; [2]): 279 nM
